The supplement of paper PMC10307832

Tests used:
Assay in all cases: relative viability (nuclei count vs DMSO), 5 days (fraction); higher = more cells survive
[1] = compound: C1CC(C2=C(C1)C3=C(N2)C=CC(=C3)Cl)C(=O)N [Selisistat] + Cc1nc(NC(=O)N2CCC[C@H]2C(N)=O)sc1-c1ccnc(C(C)(C)C(F)(F)F)c1 [Alpelisib] (partner 2 µM)
Procedure, shortened: (§1)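 A single step with final 0.05% Triton X-100, 1% formaldehyde and 1 ug/ml Hoechst fixed the cells and stained nuclei 5 days after treatment. Lung cancer cell lines in 1536-well plates had been treated by pin tool the day after seeding with one drug alone or a fixed anchor-drug dose plus five library-drug doses (not always all listed) in √10 steps, and nuclei were counted on 4× images. Relative viability is the ratio of nuclei in treated wells to nuclei in vehicle wells, taken as the median of duplicate plates.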

[2] = compound: C1CC(C2=C(C1)C3=C(N2)C=CC(=C3)Cl)C(=O)N [Selisistat] + O=C(c1cc(Cc2n[nH]c(=O)c3ccccc23)ccc1F)N1CCN(C(=O)C2CC2)CC1 [Olaparib] (partner 8 µM)
Procedure, shortened: as §1

[3] = compound: c1ccc2c(CCNc3ccc(Nc4ccncc4)cc3)c[nH]c2c1 [Serdemetan] + CC(C)C[C@H](NC(=O)[C@H](Cc1ccccc1)NC(=O)c1cnccn1)B(O)O [Bortezomib] (partner 0.002 µM)
Procedure, shortened: as §1

[4] = compound: c1ccc2c(CCNc3ccc(Nc4ccncc4)cc3)c[nH]c2c1 [Serdemetan] + C[C@]1(O)C[C@@H](c2nc(-c3ccc4ccc(-c5ccccc5)nc4c3)c3c(N)nccn32)C1 [Linsitinib] (partner 1 µM)
Procedure, shortened: as §1

Cell Line	relative viability ([1]; first compound 0.4 µM)	relative viability ([1]; first compound 1.265 µM)	relative viability ([1]; first compound 4 µM)	relative viability ([1]; first compound 12.65 µM)	relative viability ([1]; first compound 40 µM)	relative viability ([2]; first compound 0.4 µM)	relative viability ([2]; first compound 1.265 µM)	relative viability ([2]; first compound 4 µM)	relative viability ([2]; first compound 12.65 µM)	relative viability ([2]; first compound 40 µM)	relative viability ([3]; first compound 0.04 µM)	relative viability ([3]; first compound 0.1265 µM)	relative viability ([3]; first compound 0.4 µM)	relative viability ([3]; first compound 1.265 µM)	relative viability ([3]; first compound 4 µM)	relative viability ([4]; first compound 0.04 µM)	relative viability ([4]; first compound 0.1265 µM)	relative viability ([4]; first compound 0.4 µM)	relative viability ([4]; first compound 1.265 µM)	relative viability ([4]; first compound 4 µM)
HCC-44	0.86	0.874	0.853	0.846	0.9	0.992	1.01	1.01	1.02	1.18	0.854	0.849	0.827	0.621	0.85	0.637	0.634	0.598	0.426	0.424
HCC-827	0.98	0.976	0.919	0.999	0.978	0.678	0.741	0.672	0.647	0.627	1.05	0.959	–	0.954	1.01	0.892	0.9	–	0.689	0.762
NCI-H2347	1.17	1.15	0.824	1	1.12	0.719	0.622	–	0.605	0.621	1.05	0.752	1.2	1.01	0.744	0.753	0.965	0.959	0.666	0.679
PC-14	0.918	0.885	0.994	0.952	1.1	0.252	0.201	0.186	0.204	0.29	0.924	0.797	0.791	0.606	0.497	0.901	0.952	0.909	0.78	0.805
NCI-H1651	0.945	0.905	0.944	0.894	1.01	0.197	0.168	0.215	0.183	0.21	0.805	0.938	0.904	0.501	0.356	0.822	0.724	0.509	0.355	0.268
HARA	0.881	0.868	0.793	0.846	0.842	0.695	0.651	–	0.785	0.85	1.09	1.1	1.15	–	1.08	0.948	0.865	0.854	–	0.441
NCI-H1650	–	–	–	–	–	0.933	0.863	0.86	0.852	0.702	0.196	0.223	0.188	0.171	0.188	–	–	–	–	–
NCI-H1395	1.07	1.01	0.977	0.864	0.996	0.474	0.47	–	0.451	0.465	–	–	–	–	–	0.993	1.17	1.09	0.874	0.638
LU99A	0.538	0.553	0.565	0.505	0.514	0.24	0.248	0.307	0.255	0.251	1.19	1.08	1.12	0.4	0.255	0.501	0.481	0.421	0.158	0.162
NCI-H1355	0.936	0.874	–	0.862	1.05	0.796	0.775	0.664	0.735	0.813	1.23	1.19	1.12	1.17	1.1	0.82	0.711	0.746	0.75	0.683
HCC-78	0.439	0.367	0.349	0.34	0.278	0.893	0.795	0.82	0.833	0.88	0.471	0.524	0.476	0.52	0.372	0.505	0.525	0.542	0.499	0.257
NCI-H1563	0.834	0.889	0.853	0.778	0.773	–	–	–	–	–	0.723	0.925	0.692	0.742	0.648	1.13	1.03	0.94	1.06	0.759
HCC-15	1.04	0.9	–	0.775	0.878	0.822	0.712	0.855	0.675	0.743	1	1.01	1.01	0.954	0.855	0.861	0.893	0.797	0.647	0.62
EKVX	0.949	0.855	0.723	0.853	0.878	0.872	0.886	0.752	0.869	0.818	1.09	1	0.857	0.911	1.25	0.997	0.971	0.861	0.968	0.639
NCI-H2087	1.33	0.933	1	0.971	1.04	0.748	0.684	–	0.573	0.553	0.738	0.812	0.759	0.375	0.572	0.907	0.842	0.945	0.608	0.505
LK-2	1.05	0.968	0.981	0.989	1.01	0.721	0.652	0.675	0.588	0.782	–	–	–	–	–	0.48	0.545	0.527	0.49	0.491
NCI-H1437	1.03	0.987	0.787	0.981	0.919	0.599	0.615	0.618	0.565	0.544	0.545	0.497	0.471	0.46	0.547	0.993	1.02	0.975	0.861	0.687
COR-L23	0.921	0.872	0.793	0.767	0.766	0.409	0.331	0.406	0.367	0.335	0.918	0.863	0.996	0.669	0.978	0.906	0.752	0.891	0.688	0.788
ABC-1	0.977	0.972	0.872	1.15	0.921	0.715	0.686	–	0.876	0.69	0.294	0.328	0.317	0.307	0.278	0.85	0.87	0.738	0.6	0.489
SW 900	–	–	–	–	–	0.905	0.914	0.941	0.833	0.862	–	–	–	–	–	–	–	–	–	–

Cell Line	relative viability ([1]; first compound 0.4 µM)	relative viability ([1]; first compound 1.265 µM)	relative viability ([1]; first compound 4 µM)	relative viability ([1]; first compound 12.65 µM)	relative viability ([1]; first compound 40 µM)	relative viability ([2]; first compound 0.4 µM)	relative viability ([2]; first compound 1.265 µM)	relative viability ([2]; first compound 4 µM)	relative viability ([2]; first compound 12.65 µM)	relative viability ([2]; first compound 40 µM)	relative viability ([3]; first compound 0.04 µM)	relative viability ([3]; first compound 0.1265 µM)	relative viability ([3]; first compound 0.4 µM)	relative viability ([3]; first compound 1.265 µM)	relative viability ([3]; first compound 4 µM)	relative viability ([4]; first compound 0.04 µM)	relative viability ([4]; first compound 0.1265 µM)	relative viability ([4]; first compound 0.4 µM)	relative viability ([4]; first compound 1.265 µM)	relative viability ([4]; first compound 4 µM)
NCI-H838	1.11	0.971	0.912	1.1	0.954	0.833	0.782	0.842	0.75	0.733	0.869	0.739	0.848	0.74	0.856	0.995	1.04	0.961	0.989	1.17
NCI-H1648	–	–	–	–	–	0.878	0.792	–	0.918	1.2	–	–	–	–	–	–	–	–	–	–
A549	0.976	0.841	0.652	0.843	0.901	0.439	0.299	0.267	0.324	0.314	–	–	–	–	–	0.595	0.578	0.631	0.42	0.179
A-427	1.08	1.09	1.02	1.14	1.12	0.853	0.779	–	0.829	0.692	0.954	1.03	0.959	0.662	0.598	1.06	1.04	1.07	0.883	0.576
NCI-H1792	0.696	0.603	–	0.685	0.693	0.47	0.403	–	0.479	0.442	0.953	0.958	0.936	0.347	0.726	0.565	0.527	0.557	0.378	0.231
LCLC-97TM1	0.233	0.229	0.278	0.275	0.219	0.488	0.304	–	0.285	0.366	0.546	0.517	0.809	–	0.307	0.211	0.172	0.186	0.12	0.181
NCI-H1703	0.28	0.385	0.265	0.336	0.397	0.416	0.425	0.362	0.42	0.433	0.345	0.313	0.396	0.362	0.262	0.515	1.04	0.765	0.654	0.608
LCLC-103H	1.03	0.963	0.99	0.92	0.94	0.814	0.798	0.78	0.724	0.833	1.12	1.05	0.96	0.736	1.2	0.81	1.06	1.09	0.918	0.778
PC-3 [JPC-3]	1.08	0.973	1.05	1.02	1.05	1.13	1.1	–	1.02	1.07	0.868	0.861	–	0.755	0.812	0.92	0.972	–	0.919	0.985
BEN	0.953	0.986	0.818	0.9	0.884	1.08	1.03	1.06	1.06	1.04	0.785	0.924	0.766	0.48	0.763	0.857	0.929	0.956	0.875	0.679
NCI-H1666	1.06	0.978	0.946	0.847	0.748	0.798	0.763	0.745	0.811	0.631	0.97	0.761	0.838	0.868	0.534	0.944	0.85	0.761	0.784	0.724
LC-2-ad	1.02	0.853	0.89	0.848	0.901	0.801	0.69	0.717	0.633	0.71	0.921	0.927	1.04	–	0.912	0.908	0.805	0.857	–	0.722
ChaGo-K-1	–	–	–	–	–	0.439	0.409	0.438	0.351	0.388	–	1.14	0.697	0.775	0.849	–	–	–	–	–
NCI-H358	0.865	0.942	–	0.932	0.912	0.724	0.593	0.696	0.553	0.662	–	–	–	–	–	0.672	0.781	0.679	0.465	0.651
NCI-H1944	0.92	0.779	–	0.729	0.823	0.431	0.381	0.335	0.357	0.413	–	–	–	–	–	1.23	1.17	1.06	–	0.6
NCI-H2342	–	–	–	–	–	0.4	0.397	0.468	0.475	0.461	–	–	–	–	–	–	–	–	–	–
NCI-H522	–	–	–	–	–	0.574	0.766	0.634	0.553	0.519	–	–	–	–	–	–	–	–	–	–
SK-MES-1	1.01	0.951	0.836	0.838	0.896	0.769	0.717	0.823	0.736	0.809	–	–	–	–	–	0.964	1.2	1.03	0.796	0.674
NCI-H2170	0.885	0.805	0.815	0.771	0.881	0.596	0.581	0.647	0.585	0.664	–	–	–	–	–	–	–	–	–	–
NCI-H1793	0.859	0.625	–	0.958	0.834	1.01	0.935	–	0.812	0.912	–	–	–	–	–	0.978	0.834	0.574	0.525	0.336
